Test results taken from patent US20230143119A1, “PHARMACEUTICAL COMPOSITION FOR PREVENTION OR TREATMENT OF DIABETES AND METABOLIC DISEASES ASSOCIATED THEREWITH” (DONG-A ST CO., LTD., priority 2020, published 2023).

Columns and labels:
[1] = test system: DIO mice; assay: 12-week drug-diet admixture in diet-induced obese (DIO) and insulin resistant mice; type: in vivo, C57BL/6J mice; settings: compound 1 100 mg/kg/day, elafibranor 30 mg/kg/day, alone or in combination, 12 weeks
Protocol: To induce insulin resistance, six-weeks old male C57BL/6J mice were supplied with a special diet of high fat, high fructose and high cholesterol (Research Diets Inc., D09100301) for at least 27 weeks. A drug-diet admixture was prepared so that diet-induced obese (DIO) and insulin resistant mice could be administered with each of compound 1 at 100 mg/kg/day and elafibranor at 30 mg/kg/day as a PPAR agonist alone or in combination. The prepared drug-diet admixture was supplied to mice for 12 weeks. Nonfasting blood glucose level was measured from plasma collected after autopsy at a time point of 12 weeks after drug administration using a Roche's AccuChek Active glucose meter.

[2] = test system: HF mice; assay: Three-week administration in high fat diet (HF) insulin resistant mice; type: in vivo, C57BL/6J male mice; settings: for effect of reducing body fat: compound 1 50 mg/kg or metformin 150 mg/kg twice a day alone, body composition analysis by NMR; for blood concentration of total GLP-1 (GLP-1 secretion) / weight loss: compound 1 50 mg/kg, metformin 150 mg/kg, twice a day, alone or co-administered; for blood concentration of total GLP-1 (GLP-1 secretion): three weeks, nonfasting autopsy; for weight loss: two weeks
Protocol: Four-weeks old C57BL/6J male mice were supplied with a high fat diet (Research Diets Inc., D12492; 60% kcal fat) for ten weeks so as to induce insulin resistance. After acclimatization to drug administration for two weeks, the mice were assigned into each group based on body weight and body fat. Compound 1 was administered alone at 50 mg/kg twice a day to a compound 1 monotherapy group, and metformin was administered alone at 150 mg/kg twice a day to a metformin monotherapy group. The co-administration group was orally co-administered with compound 1 at 50 mg/kg and metformin at 150 mg/kg twice a day for three weeks. […] Fasting blood glucose was measured from whole blood collected from a tail vein after fasting for six hours at the second week of administration using a Roche's AccuChek Active glucose meter.

[3] = test system: normal mice; assay: Single dose administration in normal mice with oral sucrose loading; type: in vivo, ICR male mice; settings: oral compound 1 3 mg/kg, voglibose 0.02 mg/kg, alone or in combination; sucrose 2 g/kg 30 min later
Protocol: At a time point of 30 minutes later, sucrose solution was orally loaded at 2 g/kg/10 ml. […] A time-blood glucose level response curve was obtained. In terms of a rate of change, a comparison was made between an area under the time-blood glucose level curve in a control group administered with solvent only and an area under the time-blood glucose level curve in a drug administration group.

| SMILES | hypoglycemic effect (nonfasting blood glucose level) [1] | effect of reducing body fat [2] | blood concentration of total GLP-1 (GLP-1 secretion) [2] | weight loss [2] [%] | hypoglycemic effect (postprandial blood glucose for two hours after sucrose loading) [3] |
| --- | --- | --- | --- | --- | --- |
| CCc1cnc(N2CCC(CCCOc3cc(F)c(-c4noc(C(C)C)n4)c(F)c3)CC2)nc1 [compound 1, 3-(4-(3-(1-(5-ethylpyrimidin-2-yl)piperidin-4-yl)propoxy)-2,6-difluorophenyl)-5-isopropyl-1,2,4-oxadiazole] | did not exhibit a significant hypoglycemic effect | no effect of reducing body fat | significant increase in GLP-1 secretion was not identified | −4.0 | – |
| CSc1ccc(C(=O)/C=C/c2cc(C)c(OC(C)(C)C(=O)O)c(C)c2)cc1 [elafibranor] | exhibited a hypoglycemic effect | – | – | – | – |
| CN(C)C(=N)N=C(N)N [metformin] | – | insignificant effect of reducing body fat | significant increase in GLP-1 secretion was not identified | −4.4 | – |
| OCC(CO)N[C@H]1C[C@](O)(CO)[C@@H](O)[C@H](O)[C@H]1O [voglibose] | – | – | – | – | no hypoglycemic effect |
